Experimental data published in patent US20130072863A1, “CARBON DIOXIDE GAS MIST PRESSURE BATH METHOD AND CARBON DIOXIDE GAS MIST PRESSURE BATH APPARATUS FOR PREVENTING, IMPROVING OR CURING MYOCARDIAL INFARCTION” (priority 2010, published 2013).

What was measured:
[1] = tested on: models of myocardial infarction; experiment: laser tissue blood oxygen monitor measurement in the tissue during pressure bath treatment with four kinds of gases; format: in vivo, male wistar rats
Description: The compositions of gases sealed under pressure in the carbon dioxide gas mist pressure bath means were subjected to the experiments using the four kinds of air mist (AM), CO2 gas (CG), CO2 mist (CM) and 100% oxygen mist (OM). Each of gases was sealed under pressure in the carbon dioxide gas mist pressure bath means, and the treatments were practiced. The numbers of the individuals were 13, 14, 15 and 11 pieces, respectively. Each of the individuals was intubated into male wistar rats aged of 8 weeks under the pentobarbital anesthesia, subjected to the thoracotomy, and was ligated at the coronary left-front rami descendens for making models of myocardial infarction. As to the treatments to these individuals by the four kinds of gases, the laser tissue blood oxygen monitor carried out measures on the pre-treatment (pre), the respective conditions at 10 min, 20 min and 30 min after starting the treatments, and the volume of oxygenated blood (volume of oxyhemoglobin) in the tissue of the individuals under the conditions (post) after finishing the treatments, and the measured results are shown in Table 1. To concretely explain Table 1, the air mist (AM) was experimented on the 13 individuals, and the laser tissue blood oxygen monitor carried out measures on the pre-treatment (pre), the conditions at 10 min, 20 min and 30 min after the treatments and the volumes of oxyhemoglobin of the respective individuals under the conditions (post) after the treatments. Then, “reference values” were made from values when having calculated the average values of the volume of oxyhemoglobin of the 13 individuals measured with the blood flow meter before the treatments, and Table expresses this average values as “1.000”. […] With respect to the average values of the volume of oxyhemoglobin of the respective individuals at 20 min, 30 min after starting the treatments and at the case of post, the above mentioned reference value made the division calculation on the value when having calculated the reference value of the volumes of oxyhemoglobin of the respective individuals, and the values calculated by the division are shown as the average values. […] The measures at this time also performed in each of the treatments as the pre-treatment (pre), the respective conditions of passing 10 min, 20 min and 30 min after starting the treatments, under the conditions (post) after finishing the treatments. In the results of measuring the treatments of the respective gases, “reference values” were made from values when calculating the average values of the volume of deoxyhemoglobin, the average value was expressed with “1.000” in this Table. The above mentioned reference values made the division calculation on the values when calculating the average values of the amount of deoxyhemoglobin of the respective individuals measured by the laser tissue blood oxygen monitor in the pre-treatment (pre) in the respective individuals of the cases of passing 20 min, 30 min and the condition (post) after finishing the treatments, and the values calculated by the division are shown as the average values. […] The measures performed, also at this time, in each of the gas treatments of the pre-treatment (pre), the respective conditions of 10 min, 20 min, 30 min after starting the treatment, and under the conditions (post) after finishing the treatments. In the results of measuring the treatments of the respective gases, making “reference values” from values when having calculated the average values of the volume of total hemoglobin, the average value is expressed with “1.000” in this Table. […]

myocardial infarction = experiment: measuring the tissue pH over weeks of treatment; format: in vivo, wistar rats
Description: The composition to be sealed under pressure into the carbon dioxide gas mist pressure bath means was experimented in the four kinds of the control (C), non-treated myocardial infarction (NM), CO2 mist (M) and CO2 gas. The number practiced by each of the gases is 8, 9, 8 and 5 individuals. In each of treatments, the pH changes of the individuals are measured in the pre-treatment (Δ1 day), one week after the treatment (Δ1 wks), two week after the treatment (Δ2 wks), and three week after the treatment (Δ3 wks). To explain Table 5 concretely, the control (C) was experimented to 8 individuals, as to the values of pH of the respective individuals are measured 1 week (Δ1 wks) after the treatment, 2 weeks (Δ2 wks) after the treatment, and (Δ3 wks) after the treatment. As to the changing values of pH of the respective individuals, making the reference values of the values when having calculated the average values of pH of 8 individuals measured before the treatment (Δ1 day), Table 5 expresses this reference value as “0.000”. Similarly, also as to three kinds of gases of the non treated myocardial infarction (NM), CO2 mist and CO2 gas (CG), making the reference values of the values when having calculated the average values of the changing values in pH before the treatment (Δ1 day), Table 5 expresses this reference value as “0.000”. The average values of the changing values of pH in the respective individuals measured at 1 week (Δ1 wks) after the treatment, 2 weeks (Δ2 wks) after the treatment and (Δ3 wks) after the treatment are shown with the respective changing amounts from the respective reference values. […] The numbers of the individuals practiced with the gases are 8, 9, 8 and 5 pieces, respectively, providing that the average values of pH are shown as they are pre-treatment (day 1), 1 week (Δ1 wks) after the treatment, 2 weeks (Δ2 wks) after the treatment, and (Δ3 wks) after the treatment.

[2] = 10 min, relative to pre = 1.000
[3] = 20 min, relative to pre = 1.000
[4] = 30 min, relative to pre = 1.000

## O=C=O [CG, carbon dioxide]
[1]; [2]
  StO2 (degree of oxygen saturation in blood in the tissue), average value: 1.027
  total Hb (volume of total hemoglobin in the tissue), average value: 1.002
[1]; 10 min after starting treatment, relative to pre = 1.000
  deoxyHb (volume of deoxyhemoglobin in the tissue), average value: .974
[1]; 10 min after starting treatment, relative to pre-treatment average = 1.000
  oxyHb (volume of oxyhemoglobin in the tissue), average value: 1.030
[1]; [3]
  StO2 (degree of oxygen saturation in blood in the tissue), average value: 1.061
  deoxyHb (volume of deoxyhemoglobin in the tissue), average value: .942
  total Hb (volume of total hemoglobin in the tissue), average value: 1.010
[1]; 20 min after starting treatment, relative to pre = 1.000
  oxyHb (volume of oxyhemoglobin in the tissue), average value: 1.074
[1]; [4]
  StO2 (degree of oxygen saturation in blood in the tissue), average value: 1.063
  deoxyHb (volume of deoxyhemoglobin in the tissue), average value: .930
  total Hb (volume of total hemoglobin in the tissue), average value: .995
[1]; over the course of treatment (FIG. 11)
  amount of oxyhemoglobin, effect of the treatment in words: though not significant, increase of the amount of oxyhemoglobin was recognized
[1]; over the course of treatment (FIG. 17)
  StO2, effect of the treatment in words: increases until 20 minutes after the treatment starts
[1]; post (after finishing treatment), relative to pre = 1.000
  oxyHb (volume of oxyhemoglobin in the tissue), average value: 1.051
[1]; post, relative to pre = 1.000
  StO2 (degree of oxygen saturation in blood in the tissue), average value: 1.065
  deoxyHb (volume of deoxyhemoglobin in the tissue), average value: .915
  total Hb (volume of total hemoglobin in the tissue), average value: .981
Myocardial infarction; 1 wks after the treatment
  tissue pH, average value: 7.168
Myocardial infarction; 1 wks after the treatment, change from pre-treatment (1 day) = 0.000
  change of tissue pH (ΔpH), average value: −.084
Myocardial infarction; 2 wks after the treatment
  tissue pH, average value: 7.340
Myocardial infarction; 2 wks, change from pre-treatment = 0.000
  change of tissue pH (ΔpH), average value: .090
Myocardial infarction; 3 wks after the treatment
  tissue pH, average value: 7.306
Myocardial infarction; 3 wks, change from pre-treatment = 0.000
  change of tissue pH (ΔpH), average value: .050
Myocardial infarction; pre-treatment (day 1)
  tissue pH, average value: 7.254
